Measured values: US20210277020A1, “HETEROCYCLIC COMPOUNDS AS MONOACYLGLYCEROL LIPASE INHIBITORS” (Hoffmann-La Roche Inc., priority 2018, published 2021)

Columns and labels:
[1] = target: T1, MAGL (recombinant wild-type) (Homo sapiens, UniProt Q99685); assay: 4-NPA assay: MAGL inhibition followed by hydrolysis of 4-nitrophenylacetate, absorbance at 405 nm; format: biochemical; conditions: measured in 4-NPA assay (footnote [b]); 1 nM MAGL, 300 μM 4-nitrophenylacetate
T1 sequence (Q99685 1-303): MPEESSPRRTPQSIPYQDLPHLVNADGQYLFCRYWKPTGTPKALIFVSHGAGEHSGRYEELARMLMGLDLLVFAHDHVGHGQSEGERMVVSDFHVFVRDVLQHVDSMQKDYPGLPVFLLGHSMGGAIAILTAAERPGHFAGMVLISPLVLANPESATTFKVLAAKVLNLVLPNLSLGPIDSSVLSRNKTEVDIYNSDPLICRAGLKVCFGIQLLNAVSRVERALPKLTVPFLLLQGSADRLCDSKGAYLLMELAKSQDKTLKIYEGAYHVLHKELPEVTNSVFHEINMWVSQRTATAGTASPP
Experimental: Compounds were profiled for MAGL inhibitory activity by measuring the enzymatic activity of MAGL by following the hydrolysis of 4-nitrophenylacetate resulting in 4-nitrophenol, which absorbs at 405-412 nm (G. G. Muccioli, G. Labar, D. M. Lambert, Chem. Bio. Chem. 2008, 9, 2704-2710). This assay is hereinafter abbreviated “4-NPA assay”.
The 4-NPA assay was carried out in 384 well assay plates (black with clear bottom, non-binding surface treated, Corning Ref. 3655) in a total volume of 40 μL. Compound dilutions were made in 100% DMSO (VWR Chemicals 23500.297) in a polypropylene plate in 3-fold dilution steps to give a final concentration range in the assay from 25 μM to 1.7 nM. 1 μL compound dilutions (100% DMSO) were added to 19 μL MAGL (recombinant wild-type) in assay buffer (50 mM TRIS (GIBCO, 15567-027), 1 mM EDTA (Fluka, 03690-100 mL)). The plate was shaked for 1 min at 2000 rpm (Variomag Teleshake) and then incubated for 15 min at RT. To start the reaction, 20 μL 4-Nitrophenlyacetate (Sigma N-8130) in assay buffer with 6% EtOH was added. The final concentrations in the assay were 1 nM MAGL and 300 μM 4-Nitrophenylacetate. After shaking (1 min, 2000 rpm) and 5 min incubation at RT, the absorbance at 405 nm was measured for a fist time (Molecular Devices, SpectraMax Paradigm). A second measurement was then done after incubation for 80 min at RT. From the two measurements, the slope was calculated by subtracting the first from the second measurement.

MAGL = target: T2, MAGL (Homo sapiens, UniProt Q99685); assay: 2-AG assay: MAGL inhibition followed by hydrolysis of 2-arachidonoylglycerol to arachidonic acid, mass spectrometry; format: biochemical; conditions: measured in 2-AG assay (footnote [a]); substrate 2-arachidonoylglycerol 8 μM, 30 min at RT
T2 sequence (Q99685 1-303): T1 sequence (Q99685 1-303)
In short: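 Test compounds (final […], 3-fold steps) preincubated 15 min at RT with […] in 50 mM Tris, 1 mM EDTA, 0.01% Tween; 8 μM 2-arachidonoylglycerol then added for 30 min at RT. Acetonitrile quench; arachidonic acid measured by RapidFire SPE–MS/MS, activity from arachidonic acid/d8-arachidonic acid ratio.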

SMILES	IC50 [1] [nM]	IC50 (MAGL) [nM]
CN(C(=O)Cc1cccc(C(F)(F)F)c1)C1CCN(C(=O)N2CC[C@@H]3OCC(=O)N[C@@H]3C2)CC1 [Example 86, N-[1-[(4aR,8aS)-3-oxo-4,4a,5,7,8,8a-hexahydropyrido[4,3-b][1,4]oxazine-6-carbonyl]piperidin-4-yl]-N-methyl-2-[3-(trifluoromethyl)phenyl]acetamide]	519	
CN(C(=O)c1ccc(C(F)(F)F)cc1)C1CCN(C(=O)N2CC[C@@H]3OCC(=O)N[C@@H]3C2)CC1 [Example 85, N-[1-[(4aR,8aS)-3-oxo-4,4a,5,7,8,8a-hexahydropyrido[4,3-b][1,4]oxazine-6-carbonyl]piperidin-4-yl]-N-methyl-4-(trifluoromethyl)benzamide]	1990	
O=C1CO[C@H]2CCN(C(=O)N3CCC(C(=O)NCc4ccccc4)CC3)C[C@H]2N1 [Example 65, N-Benzyl-1-((4aR,8aS)-3-oxooctahydro-2H-pyrido[4,3-b][1,4]oxazine-6-carbonyl)piperidine-4-carboxamide]	2900	
O=C1CO[C@H]2CCN(C(=O)N3CCC(C(=O)N(CCO)Cc4ccccc4)CC3)C[C@H]2N1 [Example 63, N-Benzyl-N-(2-hydroxyethyl)-1-((4aR,8aS)-3-oxooctahydro-2H-pyrido[4,3-b][1,4]oxazine-6-carbonyl)piperidine-4-carboxamide]	4400	
O=C1CO[C@H]2CCN(C(=O)N3CCC(C#Cc4ccc(Cl)cc4)CC3)C[C@H]2N1 [Example 130, (+)-(4aR,8aS)-6-[4-[2-(4-Chlorophenyl)ethynyl]piperidine-1-carbonyl]-4,4a,5,7,8,8a-hexahydropyrido[4,3-b][1,4]oxazin-3-one]		82
O=C1CO[C@H]2CCN(C(=O)N3CCC(C#Cc4cnccc4Cl)CC3)C[C@H]2N1 [Example 126, (+)-(4aR,8aS)-6-[4-[2-(4-Chloropyridin-3-yl)ethynyl]piperidine-1-carbonyl]-4,4a,5,7,8,8a-hexahydropyrido[4,3-b][1,4]oxazin-3-one]		306
CS(=O)(=O)c1ccc(C#CC2CN(C(=O)N3CC[C@@H]4OCC(=O)N[C@@H]4C3)C2)cc1 [Example 186, (4aR,8aS)-6-[3-[2-(4-Methylsulfonylphenyl)ethynyl]azetidine-1-carbonyl]-4,4a,5,7,8,8a-hexahydropyrido[4,3-b][1,4]oxazin-3-one]		753
O=C1CO[C@H]2CCN(C(=O)N3CC(C#Cc4ccc(C(F)(F)F)cc4F)C3)C[C@H]2N1 [Example 158, (4aR,8aS)-6-[3-[2-[2-Fluoro-4-(trifluoromethyl)phenyl]ethynyl]azetidine-1-carbonyl]-4,4a,5,7,8,8a-hexahydropyrido[4,3-b][1,4]oxazin-3-one]		5
O=C1CO[C@H]2CCN(C(=O)N3CC(C#Cc4ccc(F)cc4Cl)C3)C[C@H]2N1 [Example 135, (+)-(4aR,8aS)-6-[3-[2-(2-Chloro-4-fluorophenyl)ethynyl]azetidine-1-carbonyl]-4,4a,5,7,8,8a-hexahydropyrido[4,3-b][1,4]oxazin-3-one]		13
CC1(C#Cc2ccc(Cl)cc2Cl)CCN(C(=O)N2CC[C@@H]3OCC(=O)N[C@@H]3C2)CC1 [Example 196, (4aR,8aS)-6-(4-((2,4-Dichlorophenyl)ethynyl)-4-methylpiperidine-1-carbonyl)hexahydro-2H-pyrido[4,3-b][1,4]oxazin-3(4H)-one]		92
Cc1c(F)cccc1C#CC1CN(C(=O)N2CC[C@@H]3OCC(=O)N[C@@H]3C2)C1 [Example 168, (4aR,8aS)-6-[3-[2-(3-Fluoro-2-methylphenyl)ethynyl]azetidine-1-carbonyl]-4,4a,5,7,8,8a-hexahydropyrido[4,3-b][1,4]oxazin-3-one]		6
Cc1ccccc1C#CC1CN(C(=O)N2CC[C@@H]3OCC(=O)N[C@@H]3C2)C1 [Example 173, (4aR,8aS)-6-(3-(o-Tolylethynyl)azetidine-1-carbonyl)hexahydro-2H-pyrido[4,3-b][1,4]oxazin-3(4H)-one]		10
O=C1CO[C@H]2CCN(C(=O)N3CC(C#Cc4ccc(Cl)cc4Cl)C3)C[C@H]2N1 [Example 134, (+)-(4aR,8aS)-6-(3-((2,4-Dichlorophenyl)ethynyl)azetidine-1-carbonyl)hexahydro-2H-pyrido[4,3-b][1,4]oxazin-3(4H)-one]		5
O=C1CO[C@H]2CCN(C(=O)N3CC(C#Cc4c(Cl)cccc4Cl)C3)C[C@H]2N1 [Example 157, (+)-(4aR,8aS)-6-(3-((2,6-Dichlorophenyl)ethynyl)azetidine-1-carbonyl)hexahydro-2H-pyrido[4,3-b][1,4]oxazin-3(4H)-one]		5
O=C1CO[C@H]2CCN(C(=O)N3CC(C#Cc4ccccc4C(F)F)C3)C[C@H]2N1 [Example 182, (4aR,8aS)-6-[3-[2-[2-(Difluoromethyl)phenyl]ethynyl]azetidine-1-carbonyl]-4,4a,5,7,8,8a-hexahydropyrido[4,3-b][1,4]oxazin-3-one]		14
O=C1CO[C@H]2CCN(C(=O)N3CC(CSc4ccc(C(F)(F)F)cc4Cl)C3)C[C@H]2N1 [Example 148, (4aR,8aS)-6-[3-[[2-Chloro-4-(trifluoromethyl)phenyl]sulfanylmethyl]azetidine-1-carbonyl]-4,4a,5,7,8,8a-hexahydropyrido[4,3-b][1,4]oxazin-3-one]		2
